ChEMBL document CHEMBL4043145, “Pyridine-pyrimidine amides that prevent HGF-induced epithelial scattering by two distinct mechanisms” (Bioorg Med Chem Lett, 2017)

Key:
A2780 [1] = assay: Antiproliferative activity against human A2780 cells; assay type: functional, cell-based
A2780 [2] = assay: Cell cycle arrest in human A2780 cells assessed as accumulation at G1 phase at 1000 nM (reference value: 55.26 to 55.66%); assay type: functional
A2780 [3] = assay: Cell cycle arrest in human A2780 cells assessed as accumulation at G2/M phase at 100 nM (reference value: 19.42 to 20.43%); assay type: functional
A2780 [4] = assay: Cell cycle arrest in human A2780 cells assessed as accumulation at G2/M phase at 1000 nM (reference value: 19.42 to 20.43%); assay type: functional
A2780 [5] = assay: Cell cycle arrest in human A2780 cells assessed as accumulation at G1 phase at 100 nM (reference value: 55.26 to 55.66%); assay type: functional
MCF7 [6] = assay: Cell cycle arrest in human MCF7 cells assessed as accumulation at G1 phase at 100 nM (reference value: 47.47 to 52.3%); assay type: functional
MCF7 [7] = assay: Cell cycle arrest in human MCF7 cells assessed as accumulation at S phase at 100 nM (reference value: 25.36 to 26.82%); assay type: functional
MCF7 [8] = assay: Cell cycle arrest in human MCF7 cells assessed as accumulation at G2/M phase at 100 nM (reference value: 20.06 to 22.33%); assay type: functional
MCF7 [9] = assay: Cell cycle arrest in human MCF7 cells assessed as accumulation at S phase at 300 nM (reference value: 25.36 to 26.82%); assay type: functional
MCF7 [10] = assay: Cell cycle arrest in human MCF7 cells assessed as accumulation at G2/M phase at 300 nM (reference value: 20.06 to 22.33%); assay type: functional
PC-3 [11] = assay: Cell cycle arrest in human p53-null PC3 cells assessed as accumulation at S phase at 1000 nM (reference value: 29.08 to 29.33%); assay type: functional
PC-3 [12] = assay: Cell cycle arrest in human p53-null PC3 cells assessed as accumulation at G1 phase at 100 nM (reference value: 50.77 to 51.16%); assay type: functional
PC-3 [13] = assay: Cell cycle arrest in human p53-null PC3 cells assessed as accumulation at G2/M phase at 100 nM (reference value: 18.37 to 18.96%); assay type: functional
PC-3 [14] = assay: Cell cycle arrest in human p53-null PC3 cells assessed as accumulation at G1 phase at 300 nM (reference value: 50.77 to 51.16%); assay type: functional
MFE-280 [15] = assay: Cell cycle arrest in human MFE280 cells assessed as accumulation at G1 phase at 1000 nM (reference value: 64.99 to 67.86%); assay type: functional
MFE-280 [16] = assay: Cell cycle arrest in human MFE280 cells assessed as accumulation at S phase at 1000 nM (reference value: 14.14 to 15.66%); assay type: functional
MFE-280 [17] = assay: Cell cycle arrest in human MFE280 cells assessed as accumulation at G2/M phase at 1000 nM (reference value: 16.43 to 17.9%); assay type: functional
MFE-280 [18] = assay: Cell cycle arrest in human MFE280 cells assessed as accumulation at S phase at 100 nM (reference value: 14.14 to 15.66%); assay type: functional
MFE-280 [19] = assay: Cell cycle arrest in human MFE280 cells assessed as accumulation at G1 phase at 300 nM (reference value: 64.99 to 67.86%); assay type: functional
MFE-280 [20] = assay: Cell cycle arrest in human MFE280 cells assessed as accumulation at S phase at 300 nM (reference value: 14.14 to 15.66%); assay type: functional
MFE-296 [21] = assay: Cell cycle arrest in human MFE296 cells assessed as accumulation at G1 phase at 1000 nM (reference value: 61.05 to 64.87%); assay type: functional
MFE-296 [22] = assay: Cell cycle arrest in human MFE296 cells assessed as accumulation at S phase at 1000 nM (reference value: 16.96 to 19.19%); assay type: functional
MFE-296 [23] = assay: Cell cycle arrest in human MFE296 cells assessed as accumulation at G1 phase at 100 nM (reference value: 61.05 to 64.87%); assay type: functional
MFE-296 [24] = assay: Cell cycle arrest in human MFE296 cells assessed as accumulation at S phase at 100 nM (reference value: 16.96 to 19.19%); assay type: functional
MFE-296 [25] = assay: Cell cycle arrest in human MFE296 cells assessed as accumulation at G2/M phase at 100 nM (reference value: 15.71 to 17.04%); assay type: functional
MFE-296 [26] = assay: Cell cycle arrest in human MFE296 cells assessed as accumulation at G1 phase at 300 nM (reference value: 61.05 to 64.87%); assay type: functional
MFE-296 [27] = assay: Cell cycle arrest in human MFE296 cells assessed as accumulation at S phase at 300 nM (reference value: 16.96 to 19.19%); assay type: functional
MFE-296 [28] = assay: Cell cycle arrest in human MFE296 cells assessed as accumulation at G2/M phase at 300 nM (reference value: 15.71 to 17.04%); assay type: functional
T47D [29] = assay: Cell cycle arrest in human T47D cells assessed as accumulation at G1 phase at 1000 nM (reference value: 45.5 to 57.8%); assay type: functional
T47D [30] = assay: Cell cycle arrest in human T47D cells assessed as accumulation at S phase at 1000 nM (reference value: 19.89 to 24.55%); assay type: functional
T47D [31] = assay: Cell cycle arrest in human T47D cells assessed as accumulation at S phase at 100 nM (reference value: 19.89 to 24.55%); assay type: functional
T47D [32] = assay: Cell cycle arrest in human T47D cells assessed as accumulation at G1 phase at 300 nM (reference value: 45.5 to 57.8%); assay type: functional
T47D [33] = assay: Cell cycle arrest in human T47D cells assessed as accumulation at G2/M phase at 300 nM (reference value: 20.58 to 28.8%); assay type: functional
MCF7 [34] = assay: Induction of apoptosis in human MCF7 cells assessed as late apoptotic cells at 1000 nM by 7-AAD/Annexin staining-based assay (reference value: 1 to 2.1%); assay type: functional
MFE-280 [35] = assay: Induction of apoptosis in human MFE280 cells assessed as early apoptotic cells at 1000 nM by 7-AAD/Annexin staining-based assay (reference value: 5.1 to 6.2%); assay type: functional
MFE-280 [36] = assay: Induction of apoptosis in human MFE280 cells assessed as early apoptotic cells at 300 nM by 7-AAD/Annexin staining-based assay (reference value: 5.1 to 6.2%); assay type: functional
MFE-280 [37] = assay: Induction of apoptosis in human MFE280 cells assessed as early apoptotic cells at 100 nM by 7-AAD/Annexin staining-based assay (reference value: 5.1 to 6.2%); assay type: functional
MFE-280 [38] = assay: Induction of apoptosis in human MFE280 cells assessed as late apoptotic cells at 100 nM by 7-AAD/Annexin staining-based assay (reference value: 6 to 7.4%); assay type: functional
MFE-296 [39] = assay: Induction of apoptosis in human MFE296 cells assessed as nuclear debris at 300 nM by 7-AAD/Annexin staining-based assay (reference value: 0.4 to 0.8%); assay type: functional

O=C(Nc1ccc(-c2cccc(Cl)c2)cn1)c1cncnc1
EC50 (A2780 [1]): 55 nM | Activity (A2780 [2]): 13.03% | Activity (A2780 [3]): 20.89% | Activity (A2780 [4]): 77.58% | Activity (A2780 [5]): 58.01% | Activity (MCF7 [6]): 43.58% | Activity (MCF7 [7]): 19.1% | Activity (MCF7 [8]): 26.95% | Activity (MCF7 [9]): 23.22% | Activity (MCF7 [10]): 32.59% | Activity (PC-3 [11]): 17.78% | Activity (PC-3 [12]): 51.5% | Activity (PC-3 [13]): 25.26% | Activity (PC-3 [14]): 14.74% | Activity (MFE-280 [15]): 34.18% | Activity (MFE-280 [16]): 18.57% | Activity (MFE-280 [17]): 46.61% | Activity (MFE-280 [18]): 18.71% | Activity (MFE-280 [19]): 39.17% | Activity (MFE-280 [20]): 21.09% | Activity (MFE-296 [21]): 8.62% | Activity (MFE-296 [22]): 18.15% | Activity (MFE-296 [23]): 53.3% | Activity (MFE-296 [24]): 21.05% | Activity (MFE-296 [25]): 21.13% | Activity (MFE-296 [26]): 13.78% | Activity (MFE-296 [27]): 20.61% | Activity (MFE-296 [28]): 55.89% | Activity (T47D [29]): 31.65% | Activity (T47D [30]): 21.38% | Activity (T47D [31]): 22.91% | Activity (T47D [32]): 42.55% | Activity (T47D [33]): 22.28% | Activity (MCF7 [34]): 2.4% | Activity (MFE-280 [35]): 5.9% | Activity (MFE-280 [36]): 5.4% | Activity (MFE-280 [37]): 4.9% | Activity (MFE-280 [38]): 8.3% | Activity (MFE-296 [39]): 2.6%
